How the values were obtained:
[1] = molecular target: T1, CDK2/Cyclin E2 (Homo sapiens, UniProt P24941); experiment: CDK2/CyclinE2 Enzymatic Activity Assay (TR-FRET); type: biochemical; settings: ATP 1 mM final, read-out: CDK2_E1 IC50
T1 construct: Recombinant protein complex CDK2/Cyclin E2, expressed from insect cell, was purchased from ProQinase
Protocol: CDK2/CyclinE2 Enzymatic Activity Assay
The inhibitory activity of compounds was evaluated in vitro using TR-FRET assay with white 384-well low volume microplate (Greiner Bio-One). CDK2/Cyclin E2 catalyzed phosphorylation of peptide in the presence and absence of compounds was measured and used in IC50 determination. Recombinant protein complex CDK2/Cyclin E2, expressed from insect cell, was purchased from ProQinase. Testing compounds were dissolved in DMSO at 1 mM and tested in 9-dose IC50 mode. The reaction mixture was prepared by mixing CDK2/CyclinE2 (1 nM final), ULight-4E-BP1 (50 nM final, Perkinelmer, TRF0128-D), and ATP (1 mM final) in assay buffer (20 mM of HEPES pH 7.4, 1 mM of EGTA, 0.05% BSA, 0.005% Tween 20, and 1 mM TCEP). The compound of interest in DMSO was added to each well in 3-fold serial dilution by dispenser (TECAN D300E) to make a 9.9 μL of reaction mixture. After 20 minutes preincubation at room temperature, 0.1 μL MgCl2 (10 mM final) was added to initiate the reaction. Following a 45 minute incubation at 37° C., the reaction was stopped by addition of 2 μL of quenching buffer consisting of Lance detection buffer (Perkinelmer CR97-100C), LANCE Ultra Europium-anti-P-4E-BP1 (Perkinelmer, TRF0216-D), EDTA, and incubated at room temperature for additional 60 minutes in the dark. The reaction signal was measured by Envision multimode plate reader (PerkinElmer, 2102-0010). IC50 values were determined by fitting the data to the standard 4 parameters with Hill Slope using GraphPad Prism software.

[2] = test system: OVCAR3 p-RB; experiment: pRB ICW Assay in OVCAR3 Cells; type: cell-based; settings: Homo sapiens, OVCAR-3, incubated with compound for 2 hours
Protocol: pRB ICW Assay in OVCAR3 Cells
OVCAR3 cells were maintained in RPMI (Corning, Catalog #: 10-040-CV) supplemented with 10% v/v FBS (Gibco, Catalog #: 26140-079), 1% v/v Penicillin Streptomycin (Gibco, Catalog #15140-122.) OVCAR3 cells grown at log phase were trypsinized, counted, and resuspended in fresh medium to reach a final density of 6.7e4 cells/mL and 75 μL of culture were dispensed into a 384-well plate (Falcon, cat #353962) using a Multidrop Combi dispenser (Thermo Scientific). The next day, compounds were dispensed as a 9-point, ½ log serial dilution using a Tecan digital dispenser (D300e), and cells were incubated with compound for 2 hours in a humidified incubator at 37° C. A reference compound at a final concentration of 10 μM was used as a control for maximum inhibition. Each compound was tested in duplicate for each experiment. At the end of the incubation, […] (Electron Microscopy, cat #15710) was slowly added to each well and the plate was incubated at room temperature (RT) for 30 minutes to fix cells. Cells were then permeabilized by incubating with 50 μL/well of wash buffer (1×PBS with 0.1% Triton X-100) 5×5 minutes, followed by 1 hour blocking with 30 μL/well of Odyssey blocking buffer (Li-COR, cat #927-40000), at RT. Anti-phosphor RB antibody (Cell signaling 8516S) was diluted 1:1000 in Odyssey blocking buffer and 20 μL was added to all wells and incubated overnight in 4° C. with gently rocking. The next day, cells were washed 5×5 min with 50 μL/well of wash buffer, followed with 1 hour incubation with secondary antibody and DRAQ5 diluted in Odyssey blocking buffer (1:500 dilution for secondary antibody and 1:2000 dilution for DRAQ5), 5×5 min washes, and one last wash with water. Plates were dried in 37° C. oven for 5 minutes and scanned using Li-COR Odyssey CLx imaging system to acquire intensities at 700 and 800 nm channels.

SMILES	IC50 [1] [nM]	IC50 [2] [nM]
CS(=O)(=O)N1CCC(Nc2ncc(C(F)(F)F)c(-c3ncc(C4(O)CCC4)s3)n2)CC1 [Example 106, 1-(2-(2-((1-(methylsulfonyl)piperidin-4-yl)amino)-5-(trifluoromethyl)pyrimidin-4-yl)thiazol-5-yl)cyclobutan-1-ol]	≤ 100	100 to 500
Cn1cc(S(=O)(=O)N2CC[C@@H](Nc3ncc(C(F)(F)F)c(-c4ncc(CC(C)(C)O)s4)n3)[C@H](F)C2)cn1 [Example 110, 1-(2-(2-(((3R,4R)-3-fluoro-1-((1-methyl-1H-pyrazol-4-yl)sulfonyl)piperidin-4-yl)amino)-5-(trifluoromethyl)pyrimidin-4-yl)thiazol-5-yl)-2-methylpropan-2-ol]	≤ 100	100 to 500
C[C@@H]1CN(S(=O)(=O)c2cnn(C)c2)CC[C@@H]1Nc1ncc(C(F)(F)F)c(-c2ncc(CC(C)(C)O)s2)n1 [Example 111, 2-methyl-1-(2-(2-(((3R,4S)-3-methyl-1-((1-methyl-1H-pyrazol-4-yl)sulfonyl)piperidin-4-yl)amino)-5-(trifluoromethyl)pyrimidin-4-yl)thiazol-5-yl)propan-2-ol]	≤ 100	≤ 100
CS(=O)(=O)N1CCC(Nc2ncc(C(F)(F)F)c(-c3ncc(C(O)C(F)(F)F)s3)n2)CC1 (stereo not shown) [Example 113, 2,2,2-trifluoro-1-(2-(2-((1-(methylsulfonyl)piperidin-4-yl)amino)-5-(trifluoromethyl)pyrimidin-4-yl)thiazol-5-yl)ethan-1-ol]	≤ 100	≤ 100
CC(O)c1cnc(-c2nc(N[C@@H]3CCN(S(=O)(=O)c4cnn(C)c4)C[C@H]3F)ncc2C(F)(F)F)s1 (stereo partly drawn) [Example 115, 1-(2-(2-(((3R,4R)-3-fluoro-1-((1-methyl-1H-pyrazol-4-yl)sulfonyl)piperidin-4-yl)amino)-5-(trifluoromethyl)pyrimidin-4-yl)thiazol-5-yl)ethan-1-ol]	≤ 100	≤ 100
CC(C)(O)c1sc(-c2nc(N[C@@H]3CCN(S(C)(=O)=O)C[C@H]3F)ncc2C(F)(F)F)cc1C#N [Example 116, 5-(2-(((3R,4R)-3-fluoro-1-(methylsulfonyl)piperidin-4-yl)amino)-5-(trifluoromethyl)pyrimidin-4-yl)-2-(2-hydroxypropan-2-yl)thiophene-3-carbonitrile]	≤ 100	≤ 100
C[C@@H]1CN(S(=O)(=O)c2cnn(C)c2)CC[C@@H]1Nc1ncc(C(F)(F)F)c(-c2cc(C#N)c(C(C)(C)O)s2)n1 [Example 118, 2-(2-hydroxypropan-2-yl)-5-(2-(((3R,4S)-3-methyl-1-((1-methyl-1H-pyrazol-4-yl)sulfonyl)piperidin-4-yl)amino)-5-(trifluoromethyl)pyrimidin-4-yl)thiophene-3-carbonitrile]	≤ 100	100 to 500
Cn1cc(S(=O)(=O)N2CC[C@@H](Nc3ncc(C(F)(F)F)c(-c4cc(C#N)c(C(C)(C)O)s4)n3)[C@H](F)C2)cn1 [Example 119, 5-(2-(((3R,4R)-3-fluoro-1-((1-methyl-1H-pyrazol-4-yl)sulfonyl)piperidin-4-yl)amino)-5-(trifluoromethyl)pyrimidin-4-yl)-2-(2-hydroxypropan-2-yl)thiophene-3-carbonitrile]	≤ 100	≤ 100
Cc1cnc(N[C@H]2CCN(S(C)(=O)=O)C[C@H]2F)nc1-c1ncc(CC(C)(C)O)s1 [Example 155, 1-(2-(2-(((3R,4S)-3-fluoro-1-(methylsulfonyl)piperidin-4-yl)amino)-5-methylpyrimidin-4-yl)thiazol-5-yl)-2-methylpropan-2-ol]		≤ 100

Next, values leading:

IC50 [1] [nM]	IC50 [2] [nM]	SMILES
≤ 100	100 to 500	CC(C)(O)c1cnc(-c2nc(NC3CCN(S(C)(=O)=O)CC3)ncc2C(F)(F)F)s1 [Example 95, 2-(2-(2-((1-(methylsulfonyl)piperidin-4-yl)amino)-5-(trifluoromethyl)pyrimidin-4-yl)thiazol-5-yl)propan-2-ol]
≤ 100	≤ 100	CC(C)(O)c1cnc(-c2nc(N[C@H]3CCN(S(C)(=O)=O)C[C@H]3F)ncc2C(F)(F)F)s1 [Example 96, 2-(2-(2-(((3R,4S)-3-fluoro-1-(methylsulfonyl)piperidin-4-yl)amino)-5-(trifluoromethyl)pyrimidin-4-yl)thiazol-5-yl)propan-2-ol]
≤ 100	≤ 100	CC(C)(O)c1cnc(-c2nc(N[C@@H]3CCN(S(C)(=O)=O)C[C@H]3F)ncc2C(F)(F)F)s1 [Example 97, 2-(2-(2-(((3R,4R)-3-fluoro-1-(methylsulfonyl)piperidin-4-yl)amino)-5-(trifluoromethyl)pyrimidin-4-yl)thiazol-5-yl)propan-2-ol]
≤ 100	≤ 100	Cn1cnc(S(=O)(=O)N2CCC(Nc3ncc(C(F)(F)F)c(-c4ncc(C(C)(C)O)s4)n3)CC2)c1 [Example 98, 2-(2-(2-((1-((1-methyl-1H-imidazol-4-yl)sulfonyl)piperidin-4-yl)amino)-5-(trifluoromethyl)pyrimidin-4-yl)thiazol-5-yl)propan-2-ol]
≤ 100	100 to 500	Cn1cc(S(=O)(=O)N2CCC(Nc3ncc(C(F)(F)F)c(-c4ncc(C(C)(C)O)s4)n3)CC2)cn1 [Example 99, 2-(2-(2-((1-((1-methyl-1H-pyrazol-4-yl)sulfonyl)piperidin-4-yl)amino)-5-(trifluoromethyl)pyrimidin-4-yl)thiazol-5-yl)propan-2-ol]
≤ 100	≤ 100	Cn1cc(S(=O)(=O)N2CC[C@@H](Nc3ncc(C(F)(F)F)c(-c4ncc(C(C)(C)O)s4)n3)[C@H](F)C2)cn1 [Example 101, 2-(2-(2-(((3R,4R)-3-fluoro-1-((1-methyl-1H-pyrazol-4-yl)sulfonyl)piperidin-4-yl)amino)-5-(trifluoromethyl)pyrimidin-4-yl)thiazol-5-yl)propan-2-ol]
≤ 100	≤ 100	CC(O)(c1cnc(-c2nc(NC3CCN(S(C)(=O)=O)CC3)ncc2C(F)(F)F)s1)C(F)F (stereo not shown) [Example 102, 1,1-difluoro-2-(2-(2-((1-(methylsulfonyl)piperidin-4-yl)amino)-5-(trifluoromethyl)pyrimidin-4-yl)thiazol-5-yl)propan-2-ol]
≤ 100	≤ 100	C[C@@H]1CN(S(=O)(=O)c2cnn(C)c2)CC[C@@H]1Nc1ncc(C(F)(F)F)c(-c2ncc(C(C)(O)C(F)(F)F)s2)n1 (stereo partly drawn) [Example 105, 1,1,1-trifluoro-2-(2-(2-(((3R,4S)-3-methyl-1-((1-methyl-1H-pyrazol-4-yl)sulfonyl)piperidin-4-yl)amino)-5-(trifluoromethyl)pyrimidin-4-yl)thiazol-5-yl)propan-2-ol]
≤ 100	≤ 100	CC(O)c1cnc(-c2nc(NC3CCN(S(C)(=O)=O)CC3)ncc2C(F)(F)F)s1 (stereo not shown) [Example 112, 1-(2-(2-((1-(methylsulfonyl)piperidin-4-yl)amino)-5-(trifluoromethyl)pyrimidin-4-yl)thiazol-5-yl)ethan-1-ol]
≤ 100	≤ 100	Cn1cc(S(=O)(=O)N2CCC(Nc3ncc(C(F)(F)F)c(-c4cc(C#N)c(C(C)(C)O)s4)n3)CC2)cn1 [Example 117, 2-(2-hydroxypropan-2-yl)-5-(2-((1-((1-methyl-1H-pyrazol-4-yl)sulfonyl)piperidin-4-yl)amino)-5-(trifluoromethyl)pyrimidin-4-yl)thiophene-3-carbonitrile]

— patent US20240150340A1, “CDK Inhibitors And Their Use As Pharmaceuticals” (Prelude Therapeutics Incorporated, priority 2022, published 2024)
